Among the data in ChEMBL document CHEMBL1201862, “PubChem BioAssay data set” (2004) are IC50, AC50 and EC50 values, retold here.

Activity calls are given as the source filed them.

One may read the IC50 as the midpoint of a concentration-inhibition curve. One may read the AC50 as the concentration at which the activity in the assay is half-maximal. The EC50 is the concentration at which the effect is half-maximal.

Sequence of Cytochrome P450 2C9 (P11712 whole entry): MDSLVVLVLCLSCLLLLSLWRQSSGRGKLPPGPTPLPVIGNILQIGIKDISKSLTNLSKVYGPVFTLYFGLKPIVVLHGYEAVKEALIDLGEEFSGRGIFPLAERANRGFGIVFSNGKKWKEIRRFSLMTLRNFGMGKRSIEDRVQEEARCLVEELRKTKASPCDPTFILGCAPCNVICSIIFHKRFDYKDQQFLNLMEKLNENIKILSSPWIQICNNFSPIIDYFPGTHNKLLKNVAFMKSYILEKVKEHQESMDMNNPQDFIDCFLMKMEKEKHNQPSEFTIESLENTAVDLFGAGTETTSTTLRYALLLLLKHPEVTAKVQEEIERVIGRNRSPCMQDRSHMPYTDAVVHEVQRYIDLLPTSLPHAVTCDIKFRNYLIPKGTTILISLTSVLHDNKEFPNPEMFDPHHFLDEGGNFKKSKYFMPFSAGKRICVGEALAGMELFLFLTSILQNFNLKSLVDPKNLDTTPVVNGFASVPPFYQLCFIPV

In one data set the test system is H9c2. Nature of the data set: cells. Particulars: Rattus norvegicus, H9c2, Myocardium. Format: functional, cell-based.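 Further: confirmatory concentration-response retest of ultra-high-throughput screening hits for modulation of myocardial damage; cell death induced by hydrogen peroxide oxidative stress; compound pretreatment for 60 min then peroxide exposure for 2 h; potency is for protecting the cells against peroxide damage rather than for killing them.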
Turning to `COc1ccc(-c2cc(-c3nnc(COC(=O)C4CC4C)o3)c3ccccc3n2)cc1OC` (configuration not stated), the IC50 was 8.29 µM (active).
Turning to `CC(=O)c1ccccc1OCCCN1CCCCC1`, the IC50 is > 79 µM (inactive).
On to `COc1cc(/C=N\NC(=O)c2cccnc2)ccc1OC(=O)c1ccccc1Cl`, for which the IC50 was > 79 µM (inactive).

A further data set deals with T1, Cytochrome P450 1A2 (Homo sapiens, UniProt P05177).
T1 sequence (P05177 whole entry): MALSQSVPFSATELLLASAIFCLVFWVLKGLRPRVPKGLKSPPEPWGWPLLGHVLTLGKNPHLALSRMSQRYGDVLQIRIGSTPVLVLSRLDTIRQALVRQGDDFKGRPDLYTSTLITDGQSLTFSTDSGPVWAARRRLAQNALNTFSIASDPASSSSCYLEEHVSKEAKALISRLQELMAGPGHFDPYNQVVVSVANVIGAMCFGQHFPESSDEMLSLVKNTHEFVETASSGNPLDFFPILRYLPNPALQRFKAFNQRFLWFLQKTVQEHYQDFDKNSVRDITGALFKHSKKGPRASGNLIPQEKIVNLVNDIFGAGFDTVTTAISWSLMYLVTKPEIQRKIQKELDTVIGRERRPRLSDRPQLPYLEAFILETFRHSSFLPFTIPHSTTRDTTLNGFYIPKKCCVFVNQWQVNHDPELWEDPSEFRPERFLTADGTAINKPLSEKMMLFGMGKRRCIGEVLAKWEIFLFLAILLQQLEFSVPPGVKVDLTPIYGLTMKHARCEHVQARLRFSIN
Assay: not given
Settings: not given
For the compound `COC(=O)[C@@]1(Cc2ccc(F)cc2)[C@H]2c3cc(C(=O)N4CCCC4)n(CCc4ccc(O)c(O)c4)c3C[C@H]2CN1C(=O)c1ccccc1`, the AC50 is 20 µM (inconclusive).
`O=C(c1c[nH]c(=O)n(-c2ccccc2)c1=O)N1CCc2ccccc21`: the AC50 was 0.0794 µM (inconclusive).
Regarding `NS(=O)(=O)c1ccc(NC(=O)Nc2cccc3ccccc23)cc1`, the AC50 is 1 µM (inconclusive).
On the same count and under the same terms, as for `COC(=O)c1nnn(Cc2ccccc2)c1N`, the figure is 0.126 µM (inconclusive); as for `O=C(Nc1ccccc1C(=O)O)c1ccc2ccccc2n1`, 5.01 µM (inconclusive).
Regarding `CCNc1ncc2nc(-c3ccc(F)cc3)c(=O)n(Cc3ccc(F)cc3)c2n1`, the AC50 is 20 µM (inconclusive).
In the case of `CC(=O)O/C(=C1/C[C@H]2[C@@H]3CC=C4C[C@@H](OC(C)=O)CC[C@]4(C)[C@@H]3CC[C@]2(C)C1=O)C(F)(F)F`, the AC50 is 5.01 µM (inconclusive).
With `CC(=O)NCCNc1cc(-c2ccccc2C(F)(F)F)ncn1`, the AC50 is 25.1 µM (inconclusive).
For `COC(=O)c1ccc(C#CC(NP(=O)(c2ccccc2)c2ccccc2)c2ccccc2)cc1` (configuration not stated), the AC50 is 20 µM (inconclusive).
On the same count and under the same terms, as for `COc1ccccc1NC(=O)CSc1nc2ccccc2cc1Cc1ccccc1`, the figure is 3.55 µM (inconclusive); as for `CC1=C2[C@@H]3OC(=O)[C@@H](C)[C@@H]3CC[C@]2(C)C=CC1=O`, 10 µM (inconclusive); as for `N=c1sccn1CC(=O)Nc1cccc(Oc2ccccc2)c1`, 6.31 µM (inconclusive).
For `CN(C)CCC=C1c2ccccc2CCc2ccccc21` [AMITRIPTYLINE], the AC50 is 15.8 µM (inconclusive).
For `CS(=O)(=O)Nc1ccc([N+](=O)[O-])cc1Oc1ccccc1` [NIMESULIDE], the AC50 was 12.6 µM (inconclusive).

Tested on in another data set: not listed separately
The data set can be described thus: inhibitors of intracellular T. cruzi replication, confirmation, NIH3T3 host cells, beta-gal luminescence (AID 2044).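 Further: intracellular parasites grown in NIH/3T3 mouse fibroblasts as host cells; luminescent beta-galactosidase reporter signal from transgenic T. cruzi replicating inside host cells; inhibitors lower the luminescence signal.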
Settings: not given
In kind it is functional, cell-based.
For `CCN(C(=O)c1cc2c(O)nc3ccc(C)cc3c2s1)c1ccccc1C`, the EC50 is 0.857 µM (active).
`COc1ccc(-c2cc(C3CCN(Cc4ccc([N+](=O)[O-])cc4)CC3)[nH]n2)cc1`: the EC50 was 1.1 µM (active).
As for `CCOC(=O)c1cnc2ccc(OCC)cc2c1N1CCN(c2ccccc2OC)CC1`, the EC50 was 1.19 µM (active).
On to `O=C(C1=C[C@H](C2CC2)C[C@H](OCc2ccc(CO)cc2)O1)N1CCN(Cc2ccccc2)CC1`, for which the EC50 was 0.541 µM (active).
Regarding `N#Cc1cc2ccccc2nc1SCC(=O)Nc1ccc(S(=O)(=O)N2CCCC2)cc1`, the EC50 is 2.83 µM (active).
`O=C1Nc2ccccc2Oc2cc([N+](=O)[O-])ccc21`: the EC50 was 1.46 µM (active).
Take `Cc1ccc(-c2nnc(Nc3ccc(CC(N)=O)cc3)c3ccccc23)cc1`: the EC50 was 0.208 µM (active).
Regarding `O=C(c1ccc(-c2ccccc2)cc1)C1CCCN(Cc2ccncc2)C1` (configuration not stated), the EC50 was 1.47 µM (active).
For `CN(C)CCCNC(=O)c1ccc(Cl)c(S(=O)(=O)N(C)c2ccccc2)c1`, the EC50 is 0.524 µM (active).
`CN(C)CCCN/C=C1/C(=O)N(Cc2ccc3c(c2)OCO3)C(=O)c2ccccc21`: the EC50 is < 0.1 µM (active).
The same measure, in the same setting: for `OC(COc1ccc(OCC(O)CN2CCN(Cc3ccccc3)CC2)cc1)CN1CCN(Cc2ccccc2)CC1` (configuration not stated) the value was 0.789 µM (active); for `CCN1CCN(Cc2cccc(Oc3ccccc3)c2)CC1`, 1.44 µM (active); for `O=C(CN1C(=O)COc2ccccc21)N(Cc1cccnc1)Cc1ccccc1F`, 0.26 µM (active).
As for `CC(C)CN(C(=O)c1ccc([N+](=O)[O-])s1)c1c(N)n(Cc2ccccc2)c(=O)[nH]c1=O`, the EC50 was 0.783 µM (active).
`CCN(CC)CCN(C(=O)c1ccc2c(c1)OCCO2)c1nc2ccc(C)cc2s1`: the EC50 was 0.457 µM (active).
Take `CCCCCNc1nc(-c2ccccc2)nc(-n2ccnc2)n1`: the EC50 was 1.55 µM (active).
As to `O=[N+]([O-])c1ccccc1/C=N/N1CCN(c2ccncc2S(=O)(=O)N2CCCCC2)CC1`, the EC50 was 0.55 µM (active).

The target in another data set is Cytochrome P450 2C19 (Homo sapiens, UniProt P33261). The data set can be described thus: Cytochrome panel assay with activity outcomes. Panel member name: p450-cyp2c19 Compounds with AC50 equal or less than 10 uM are considered active. In kind it is functional.
Sequence of Cytochrome P450 2C19 (P33261 whole entry): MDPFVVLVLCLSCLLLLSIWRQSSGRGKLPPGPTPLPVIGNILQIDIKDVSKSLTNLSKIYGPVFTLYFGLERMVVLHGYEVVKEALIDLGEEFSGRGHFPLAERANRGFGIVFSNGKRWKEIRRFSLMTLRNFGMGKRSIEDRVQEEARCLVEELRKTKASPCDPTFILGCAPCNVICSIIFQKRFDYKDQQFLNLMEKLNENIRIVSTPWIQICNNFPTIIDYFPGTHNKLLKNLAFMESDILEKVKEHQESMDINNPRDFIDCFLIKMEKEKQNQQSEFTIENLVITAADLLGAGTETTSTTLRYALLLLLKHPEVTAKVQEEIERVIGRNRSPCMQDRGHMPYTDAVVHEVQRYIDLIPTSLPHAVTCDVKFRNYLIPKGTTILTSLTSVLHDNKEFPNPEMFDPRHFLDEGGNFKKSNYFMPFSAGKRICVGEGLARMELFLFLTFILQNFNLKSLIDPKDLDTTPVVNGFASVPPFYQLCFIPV
Settings: not given
As for `Cc1[nH]n(-c2ccc(S(=O)(=O)O)cc2)c(=O)c1/N=N\c1ccccc1`, the AC50 entry is reported as “inconclusive”.
Regarding `O=C(Cn1ccnc1[N+](=O)[O-])NCCO` [ETANIDAZOLE], the AC50 result was “inconclusive”.

The data set is the same for the next values; noted with them: read-out: AC50.
As for `CCCCOc1ccc(-c2nnn(CC(=O)c3c[nH]c4ccccc34)n2)cc1`, the AC50 was 25.1 µM (inconclusive).
`CC(=O)Nc1ccc(-c2cc(-c3ccc(NC(C)=O)cc3)nc(-c3ccccc3)n2)cc1`: the AC50 was 1.78 µM (inconclusive).
As to `O=C(c1c[nH]c(=O)n(-c2ccccc2)c1=O)N1CCc2ccccc21`, the AC50 was 6.31 µM (inconclusive).
`COC(=O)c1c(-c2ccccc2)csc1NC(=O)CSc1ncnc2sc(C)c(C)c12`: the AC50 was 1 µM (inconclusive).
As to `Cn1cc(-c2nc3cncnc3n(CCN)c2=O)c2ccccc21`, the AC50 was 31.6 µM (inconclusive).
Turning to `COC(=O)c1ccc(C#CC(NP(=O)(c2ccccc2)c2ccccc2)c2ccccc2)cc1` (configuration not stated), the AC50 is 20 µM (inconclusive).
On the same count and under the same terms, as for `COc1cccc(C(CC(=O)Nc2cccc3ccccc23)NC(=O)c2ccccc2)c1` (configuration not stated), the figure is 0.631 µM (inconclusive); as for `COC(=O)Cn1nc(-c2ccccc2)n(-c2ccccc2)c1=S`, 20 µM (inconclusive).
Consider `CCc1ccc(C(=O)COC(=O)C(Cc2ccccc2)NC(=O)C2CCC(C)CC2)cc1` (configuration not stated), for which the AC50 is 0.0708 µM (inconclusive).

The next data set addresses Cytochrome P450 2C9 (Homo sapiens, UniProt P11712).
Assay: not given
Settings: not given
`CCCC(=O)Nc1cccc(Oc2nc(C)cc(C)c2C#N)c1`: the half-maximal activity concentration (AC50) was 10 µM (inconclusive).
Consider `O=c1oc2c(CN3CCOCC3)c(O)ccc2c2ccccc12`, for which the AC50 is 20 µM (inconclusive).
As for `CC(=O)O/C(=C1/C[C@H]2[C@@H]3CC=C4C[C@@H](OC(C)=O)CC[C@]4(C)[C@@H]3CC[C@]2(C)C1=O)C(F)(F)F`, the AC50 was 3.16 µM (inconclusive).
In the case of `COc1cc(CNC(C)(C)CO)ccc1OCC(=O)Nc1ccc(Br)cc1`, the AC50 is 39.8 µM (inconclusive).
With `Cn1cc(-c2nc3cncnc3n(CCN)c2=O)c2ccccc21`, the AC50 is 15.8 µM (inconclusive).
As for `COc1ccccc1NC(=O)CSc1nc2ccccc2cc1Cc1ccccc1`, the AC50 is 0.0631 µM (inconclusive).
The same measure, in the same setting: for `COC(=O)c1sccc1NC(=O)CN(C)NS(=O)(=O)c1ccc(F)cc1` the value was 28.2 µM (inconclusive); for `N=c1sccn1CC(=O)Nc1cccc(Oc2ccccc2)c1`, 20 µM (inconclusive).
Turning to `O=C(NCc1cccnc1)C1COc2ccccc2O1` (configuration not stated), the AC50 was 20 µM (inconclusive).
For `COc1ccc(CNc2ncnc3ccc(-c4ccccc4C#N)cc23)c(OC)c1`, the AC50 was 0.794 µM (inconclusive).

Tested on in a further data set: not listed separately
The data set can be described thus: cytotoxicity toward NIH3T3 fibroblasts, dose response, counter-screen, cell-based, ATP luminescence, mouse fibroblasts (AID 2010).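 Further: cells exposed to compound for about 90 hours before reading.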
Settings: not given
Format: functional. In general terms: A counterscreen serves to expose hits that act by an unwanted route or on another target.
Take `CCN(C(=O)c1cc2c(O)nc3ccc(C)cc3c2s1)c1ccccc1C`: the EC50 is given as > 60 µM (not active).
Turning to `COc1ccc(-c2cc(C3CCN(Cc4ccc([N+](=O)[O-])cc4)CC3)[nH]n2)cc1`, the EC50 is reported as > 60 µM (not active).
`CCOC(=O)c1cnc2ccc(OCC)cc2c1N1CCN(c2ccccc2OC)CC1`: the EC50 is > 60 µM (not active).
On to `O=C(C1=C[C@H](C2CC2)C[C@H](OCc2ccc(CO)cc2)O1)N1CCN(Cc2ccccc2)CC1`, for which the EC50 is given as > 60 µM (not active).
Take `N#Cc1cc2ccccc2nc1SCC(=O)Nc1ccc(S(=O)(=O)N2CCCC2)cc1`: the EC50 is 9.37 µM (active).
Regarding `O=C1Nc2ccccc2Oc2cc([N+](=O)[O-])ccc21`, the EC50 is 9.78 µM (active).
With `Cc1ccc(-c2nnc(Nc3ccc(CC(N)=O)cc3)c3ccccc23)cc1`, the EC50 is reported as > 60 µM (not active).
Same read-out and setting: for `O=C(c1ccc(-c2ccccc2)cc1)C1CCCN(Cc2ccncc2)C1` (configuration not stated) the value was > 60 µM (not active); for `CN(C)CCCNC(=O)c1ccc(Cl)c(S(=O)(=O)N(C)c2ccccc2)c1`, > 60 µM (not active).
Turning to `CN(C)CCCN/C=C1/C(=O)N(Cc2ccc3c(c2)OCO3)C(=O)c2ccccc21`, the EC50 is 10.1 µM (active).
Turning to `OC(COc1ccc(OCC(O)CN2CCN(Cc3ccccc3)CC2)cc1)CN1CCN(Cc2ccccc2)CC1` (configuration not stated), the EC50 was > 60 µM (not active).
Same read-out and setting: for `CCN1CCN(Cc2cccc(Oc3ccccc3)c2)CC1` the value was > 30 µM (not active); for `O=C(CN1C(=O)COc2ccccc21)N(Cc1cccnc1)Cc1ccccc1F`, > 60 µM (not active); for `CC(C)CN(C(=O)c1ccc([N+](=O)[O-])s1)c1c(N)n(Cc2ccccc2)c(=O)[nH]c1=O`, > 60 µM (not active).
Same read-out and setting: as for `CCN(CC)CCN(C(=O)c1ccc2c(c1)OCCO2)c1nc2ccc(C)cc2s1`, the figure is > 60 µM (not active); as for `CCCCCNc1nc(-c2ccccc2)nc(-n2ccnc2)n1`, > 60 µM (inconclusive).
Regarding `O=[N+]([O-])c1ccccc1/C=N/N1CCN(c2ccncc2S(=O)(=O)N2CCCCC2)CC1`, the EC50 was > 60 µM (not active).
